This assay relates to LTB4 production in HL-60 cells. Kind of assay: A23187-Induced LTB4 Production in Human Promyelocytic Leukemia HL-60 Cells (HL-60 Cell Assay). The conditions noted are these: for inhibition at 100 µM: 10^-4 M; for inhibition at 10 µM: 10^-5 M; for IC50: A23187-stimulated differentiated HL-60 cells, 10 minutes preincubation at 37° C. The format is cell-based. From the text:
A23187-Induced LTB4 Production in Human Promyelocytic Leukemia HL-60 Cells.
Calcium ionophore A23187 was obtained from Calbiochem (La Jolla, CA). Trans-stilbene oxide was obtained from Sigma (St. Louis, MO). Hanks' balanced salt solution (HBSS) (10X concentrate), 1 M Hepes, and Dulbecco's modified Eagle medium were obtained from GIBCO Laboratories (Grand Island, NY). Fetal bovine serum was obtained from HyClone Laboratories (Logan, UT) The LTB4 and PGE2 radioimmunoassay antibodies were purchased from Amersham International plc (Amersham, UK) and NEN Research Products (N. Billerica, MA), respectively. Reagents for assay of lactate dehydrogenase (LDH) activity were purchased from Beckman (Carlsbad, CA).
Preparation of HL 60 Cells:
HL-60 cells were cultured in Dulbecco's modified Eagle medium (supplementedwith 20% fetal bovine serum, 20 mM Hepes, 100 U/ml penicillin and 100 mcg/ml streptomycin) and maintained at 37° C. in a humidified atmosphere of 5% CO2 in air. Cells from exponentially growing cultures were seeded at 3×10^5 cells/ml and induced to differentiate into granulocyte with 0.8% (v/v) N,N dimethylformamide for 4 days (1,2). Prior to assay, differentiated HL-60 cells were washed once with Hanks' balanced salt solution containing 0.35 mg/ml sodium bicarbonate and 10 mM Hepes, pH 7.3 (HBSS) and resuspended in HBSS at a concentration of 3×10^6 cells/ml.
DMSO or test compounds as 100× concentrates in DMSO were added in duplicate to 1.0 ml HL-60 cell suspensions (3×10^6 cells) and preincubated at 37° C. for 10 minutes in a shaking water bath. After an additional 5 minute incubation with calcium ionophore A23187 (10 mcl @ 5×10^-4 M in DMSO), the cells were pelleted at 12,800×g for 15 seconds and the supernatant removed and stored at […] for quantification of LTB4 or PGE2 via radioimmunoassay and LDH activity.
LTB4 and PGE2 data were expressed as percent inhibition of A23187-stimulated controls. For IC50 determinations, the 4 parameter logistic model was used where y is the percent inhibition response and×is the log10 concentration of the inhibitor: [formula] Nonlinear regression was performed using the SAS (3) procedure NLIN to obtain least squares estimates of the four parameters in the above equation: y.infin. (maximum), Y0 (minimum), a (log10 IC50) and b (slope factor). Increases in mean LDH levels for A23187-stimulated cells in the presence of test compound were tested for significance using a one tailed two sample Student's t-test.

Structures can show the parent of a compound that is named as a salt.

The inhibition is how much of the control response was suppressed. For orientation: IC50 means the midpoint of a concentration-inhibition curve.

In turn, `CCCCCCCCCC/C=C/C=C/C1OCC(CCCC(=O)O)O1` (racemic) [Example 5B (Racemic Mixture), 2-Tetradeca-1E,3E-dienyl-1,3-dixolane-4-butanoic acid, lithium salt] displayed an IC50 of 6.8 µM. For the setting “A23187-stimulated HL-60 cells”, the inhibition at 100 µM came out at 96% and testing at 10 µM gave an inhibition of 80%.
Turning to `CCCCCCCCCC/C=C/C=C/C1OCC(c2cccc(C(=O)O)c2)O1` (racemic) [Example 7B (Racemic Mixture), 3-(2-Tetradeca-1E,3E-dienyl-1,3-dioxolan-4-yl)benzoic acid, lithium salt], half-maximal inhibition (IC50) required 2.5 µM. Besides, where the note is “A23187-stimulated HL-60 cells”, testing at 100 µM gave an inhibition of 89% and at 10 µM the inhibition was 91%. Besides, the inhibition at 1 µM (10^-6 M, A23187-stimulated HL-60 cells) is 21%.
For the compound `CCCCCCC/C=C/C=C/C1OCC(CCCC(=O)O)O1` (racemic) [Example 8B, (±) 2-Undeca-1E,3E-dienyl-1,3-dioxolane-4-butanoic acid, lithium salt], where the note is “A23187-stimulated HL-60 cells”, 100 µM produced 84% inhibition.
For `CCCCCCCCCC/C=C/C=C/C1OCC(CCCC(=O)O)O1` (single isomer, unassigned) [Example 5B (Single Diastereomer), 2-Tetradeca-1E,3E-dienyl-1,3-dixolane-4-butanoic acid, lithium salt], the concentration for half-maximal inhibition (IC50) was 7.2 µM. For the setting “A23187-stimulated HL-60 cells”, this compound gave an inhibition at 100 µM of 91% and an inhibition at 10 µM of 77%.
The corresponding values for `CCCCCCCCCC/C=C/C=C/C1OCC(c2cccc(C(=O)[O-])c2)O1.[Li+]` (single isomer, unassigned) [Example 7B (Single diastereomer), 3-(2-Tetradeca-1E,3E-dienyl-1,3-dioxolan-4-yl)benzoic acid, lithium salt] are 3.6 µM, 92% and 92%.

For the origin of these results see patent US4954520A, “1,3-dioxolane derivatives useful in the treatment of inflammation” (G. D. Searle & Co., priority 1989, dated 1990).
